Source: patent US9499502B2, “5-substituted iminothiazines and their mono- and dioxides as BACE inhibitors, compositions, and their use” (Merck Sharp & Dohme Corp., priority 2011, dated 2016)

Molecular target: soluble human BACE1 catalytic domain (Homo sapiens (Human), UniProt P56817)
Assay: BACE1 HTRF FRET Assay
Conditions: BACE1 Ki (nM)

soluble human BACE1 catalytic domain, sequence (P56817 75-416): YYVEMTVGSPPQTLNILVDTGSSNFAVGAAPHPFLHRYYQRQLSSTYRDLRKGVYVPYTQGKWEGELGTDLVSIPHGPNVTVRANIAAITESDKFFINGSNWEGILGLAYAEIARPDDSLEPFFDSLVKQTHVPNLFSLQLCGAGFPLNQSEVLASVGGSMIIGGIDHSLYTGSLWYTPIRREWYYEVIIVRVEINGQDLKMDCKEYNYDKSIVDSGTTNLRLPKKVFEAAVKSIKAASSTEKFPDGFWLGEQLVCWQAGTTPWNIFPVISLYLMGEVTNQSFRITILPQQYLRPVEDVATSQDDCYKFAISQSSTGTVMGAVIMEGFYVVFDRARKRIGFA

Structure (SMILES)	Ki
C[C@@]1(c2sc(-c3nnc(-c4ccc(Cl)cc4)o3)cc2F)CS(=O)(=O)[C@@](C)(c2ccccn2)C(=N)N1 [Example 27bz-b]	791 nM

Same assay, conditions: at 10 μM

Structure (SMILES)	BACE1 inhibition, % Inh. at 10 μM
Cc1nc2cc(CC3(C)C(=N)N[C@](C)(c4cc(F)ccc4F)CS3(=O)=O)ccc2s1 (stereo partly shown) [Example 32-b]	7% Inh at 10 μM

Same assay, conditions: read-out: BACE1 Ki

Structure (SMILES)	Ki
COCC1(COC)C(=N)N[C@](C)(c2sc(-c3cc4cccc(OC)c4[nH]3)cc2Cl)CS1(=O)=O [Example 27bv]	79 nM
C[C@]1(CC2CCOCC2)C(=N)N[C@](C)(c2sc(-c3cncc(C#N)c3)cc2Cl)CS1(=O)=O [Example 27bw]	163 nM
C[C@]1(CC(F)(F)F)C(=N)N[C@](C)(c2sc(-c3nnc(-c4ccc(Cl)cc4)o3)cc2F)CS1(=O)=O [Example 27by-a]	29.5 nM
C[C@@]1(c2sc(-c3nnc(-c4ccc(Cl)cc4)o3)cc2F)CS(=O)(=O)[C@](C)(CC(F)(F)F)C(=N)N1 [Example 27by-b]	450 nM
C[C@@]1(c2sc(-c3nnc(-c4ccc(Cl)cc4)o3)cc2F)CS(=O)(=O)[C@@](C)(c2ccccn2)C(=N)N1 [Example 27bz-a]	51 nM
CC1(C)C(=N)N[C@](C)(c2sc(-c3cc4ccccc4s3)cc2Cl)CS1(=O)=O [Example 27f]	1180 nM
CC1(C)C(=N)N[C@](C)(c2sc(-c3csc4ccccc34)cc2Cl)CS1(=O)=O [Example 27g]	2030 nM
CC1(C)C(=N)N[C@](C)(c2sc(-c3cccc(OC(F)(F)F)c3)cc2Cl)CS1(=O)=O [Example 27h]	70.9 nM
CC1(C)C(=N)N[C@](C)(c2sc(-c3cc(F)cc(F)c3)cc2Cl)CS1(=O)=O [Example 27i]	170 nM
CC1(C)C(=N)N[C@](C)(c2sc(-c3ccc(F)c(C#N)c3)cc2Cl)CS1(=O)=O [Example 27j]	5150 nM
COc1cc(-c2cc(Cl)c([C@]3(C)CS(=O)(=O)C(C)(C)C(=N)N3)s2)ccn1 [Example 27k]	926 nM
CC1(C)C(=N)N[C@](C)(c2sc(-c3cnn4c3CCC4)cc2Cl)CS1(=O)=O [Example 27m]	5340 nM
CC1(C)C(=N)N[C@](C)(c2sc(-c3ccn4ncnc4c3)cc2Cl)CS1(=O)=O [Example 27n]	273 nM
CC1(C)C(=N)N[C@](C)(c2sc(-c3cccc(OC(F)F)c3)cc2Cl)CS1(=O)=O [Example 27o]	66.6 nM
CC1(C)C(=N)N[C@](C)(c2sc(-c3ccc4nncn4c3)cc2Cl)CS1(=O)=O [Example 27p]	2530 nM
CC1(C)C(=N)N[C@](C)(c2sc(-c3ccc4ncnn4c3)cc2Cl)CS1(=O)=O [Example 27q]	297 nM
COCCn1cc(-c2cc(Cl)c([C@]3(C)CS(=O)(=O)C(C)(C)C(=N)N3)s2)cn1 [Example 27r]	448 nM
CC1(C)C(=N)N[C@](C)(c2sc(-c3ccc(C#N)c(C(F)(F)F)c3)cc2Cl)CS1(=O)=O [Example 27t]	291 nM
CC1(C)C(=N)N[C@](C)(c2sc(-c3cnc(-c4ccc(F)cc4)o3)cc2Cl)CS1(=O)=O [Example 27v]	71.4 nM
COc1cncc(-c2cc(Cl)c([C@]3(C)CS(=O)(=O)C(C)(C)C(=N)N3)s2)n1 [Example 27w]	1290 nM

Structure (SMILES)	Ki
CC1(C)C(=N)N[C@](C)(c2sc(-c3coc(-c4ccc(F)cc4)n3)cc2Cl)CS1(=O)=O [Example 27x]	1110 nM
COc1ncc(-c2cc(Cl)c([C@]3(C)CS(=O)(=O)C(C)(C)C(=N)N3)s2)cn1 [Example 27y]	1720 nM
CC1(C)C(=N)N[C@](C)(c2sc(-c3cccc(C#N)c3F)cc2Cl)CS1(=O)=O [Example 27z]	400 nM
COc1cccn2cc(-c3cc(Cl)c([C@]4(C)CS(=O)(=O)C(C)(C)C(=N)N4)s3)nc12 [Example 28a]	804 nM
CC1(C)C(=N)N[C@](C)(c2sc(-c3cn4ccsc4n3)cc2Cl)CS1(=O)=O [Example 28b]	2630 nM
COc1cccc2nc(-c3cc(Cl)c([C@]4(C)CS(=O)(=O)C(C)(C)C(=N)N4)s3)cn12 [Example 28c]	108 nM
CC1(C)C(=N)N[C@](C)(c2nc3ccc(-c4cccnc4)cc3s2)CS1(=O)=O [Example 29a]	3380 nM
CC1(C)C(=N)N[C@](C)(c2nc3ccc(-c4ccc(F)cc4)cc3s2)CS1(=O)=O [Example 29b]	2330 nM
CC1(C)C(=N)N[C@](C)(c2nc3ccc(-c4cccc(C#N)c4)cc3s2)CS1(=O)=O [Example 29c]	2380 nM
COc1cccc(-c2ccc3nc([C@]4(C)CS(=O)(=O)C(C)(C)C(=N)N4)sc3c2)c1 [Example 29d]	2840 nM
COc1cccc([C@@]2(C)C(=N)N[C@](C)(c3cc(F)ccc3F)CS2(=O)=O)c1 [Example 32e-a]	1100 nM
COc1cccc([C@@]2(C)C(=N)N[C@](C)(c3ccc(F)cc3F)CS2(=O)=O)c1 [Example 32f-a]	1210 nM
C[C@@]1(c2cccc(Br)c2)C(=N)N[C@](C)(c2ccc(F)cc2F)CS1(=O)=O [Example 32g-b]	8830 nM
C[C@@]1(c2cccc(C(F)(F)F)c2)C(=N)N[C@](C)(c2ccc(F)cc2F)CS1(=O)=O [Example 32h-b]	2120 nM
COc1cccc(C[C@@]2(C)C(=N)N[C@](C)(c3ccc(F)cc3F)CS2(=O)=O)c1 [Example 32i-a]	3120 nM
COc1cccc(C[C@]2(C)C(=N)N[C@](C)(c3ccc(F)cc3F)CS2(=O)=O)c1 [Example 32i-b]	3820 nM
C[C@]1(Cc2cccc(Br)c2)C(=N)N[C@](C)(c2ccc(F)cc2F)CS1(=O)=O [Example 32j-a]	2100 nM
C[C@@]1(c2ccc(F)cc2F)CS(=O)(=O)[C@](C)(Cc2cccc(Br)c2)C(=N)N1 [Example 32j-b]	1270 nM
C[C@@]1(c2ccc(F)cc2F)CS(=O)(=O)[C@@](C)(c2cccc(OCc3ccccc3)c2)C(=N)N1 [Example 34a]	2170 nM
C[C@@]1(c2ccc(F)cc2F)CS(=O)(=O)[C@@](C)(c2cccc(OCC3CC3)c2)C(=N)N1 [Example 34b]	1130 nM

Same assay, conditions: read-out: BACE1 Ki; Ki calculated from IC50 using the Cheng-Prusoff equation

Structure (SMILES)	Ki
CC1(C)C(=N)N[C@](C)(c2sc(-c3cccc(-c4cnco4)c3)cc2Cl)CS1(=O)=O [Example 27c]	12.8 nM
CC1(C)C(=N)N[C@](C)(c2sc(-c3cccc(-c4ccno4)c3)cc2Cl)CS1(=O)=O [Example 27d]	64.3 nM

Same assay, conditions: read-out: BACE1 inhibition, % Inh. at 10 μM, at 10 μM

Structure (SMILES)	inhibition at 10 µM
CC1(c2nc(C#Cc3ccc(F)cc3)ccc2F)CS(=O)(=O)C(C)(C)C(=N)N1 (stereo not shown) [Example 31a]	41%
COc1cccc([C@]2(C)C(=N)N[C@](C)(c3ccc(F)cc3F)CS2(=O)=O)c1 [Example 32f-b]	30%
C[C@@]1(c2cccc(O)c2)C(=N)N[C@](C)(c2cc(F)ccc2F)CS1(=O)=O [Example 34c-b]	48%

Same assay, conditions: read-out: BACE1 inhibition, Ki

Structure (SMILES)	Ki
C[C@@]1(c2cc(F)ccc2F)CS(=O)(=O)[C@@](C)(c2cccc(O)c2)C(=N)N1 [Example 34c-a]	1000 nM
C[C@@]1(c2cc(F)ccc2F)CS(=O)(=O)[C@@](C)(c2cccc(OCc3ccccc3)c2)C(=N)N1 [Example 34d-a]	2900 nM
